Assay results: PMC8811472, “Systematic In Vitro Evaluation of a Library of Approved and Pharmacologically Active Compounds for the Identification of Novel Candidate Drugs for KMT2A-Rearranged Leukemia” (Frontiers in Oncology, 2022)

Key:
LNCaP cells = test: 72-hour resazurin-based cytotoxicity assay, LNCaP; assay type: cell-based, human; settings: prostate carcinoma
Protocol: (§1) All cell lines used in this study were mycoplasma-free and have been authenticated using STR profiling. Cells were cultured as previously described ([7], [8]). Characteristics of the leukemia cell lines used in this study are described in Supplementary Table 1 . Peripheral blood mononuclear cells from healthy donors were purchased from Australian Red Cross.
(§2) The cytotoxicity of drugs was assessed through resazurin-based assays and the inhibitory concentration resulting in 50% reduction of cell survival relative to control (IC50) was calculated as previously described ([7]). In synergy studies, cells were exposed to a dilution series of compounds, as single agents or in combination, in resazurin-based assays (72 hours) as described ([8]–[10]). The occurrence of synergy was determined with the Bliss Independence model as previously described ([8]–[10]). Bliss Prediction curves indicated the predicted percentage viability of the cells when exposed to the combination of compounds if both compounds work additively together. Synergy was visualised as the presence of a lower cell viability upon combination of two compounds compared to the viability predicted based on the presence of an additive effect of the compounds (i.e., the viability curve of the combination runs below the Bliss Prediction curve). […]

MOLM13 cells = test: Synergy study (Bliss Independence model), MOLM13; assay type: cell-based, human; settings: MOLM13, 72 h
Protocol: (§3) The cytotoxicity of drugs was assessed through resazurin-based assays and the inhibitory concentration resulting in 50% reduction of cell survival relative to control (IC50) was calculated as previously described ([7]). In synergy studies, cells were exposed to a dilution series of compounds, as single agents or in combination, in resazurin-based assays (72 hours) as described ([8]–[10]). The occurrence of synergy was determined with the Bliss Independence model as previously described ([8]–[10]). Bliss Prediction curves indicated the predicted percentage viability of the cells when exposed to the combination of compounds if both compounds work additively together. Synergy was visualised as the presence of a lower cell viability upon combination of two compounds compared to the viability predicted based on the presence of an additive effect of the compounds (i.e., the viability curve of the combination runs below the Bliss Prediction curve). The percentage of apoptotic cells was assessed by annexin V and 7-Aminoactinomycin D (7-AAD) (BD Biosciences, Australia) flow cytometry as previously described ([7]).

[1] = test system: cleavage of PARP and caspase-3; test: Western blot of apoptotic markers; assay type: cell-based, human; settings: sensitive KMT2A-r leukemia cells, not in KMT2A-wt
Protocol: Western blotting experiments were performed as previously described ([7]). Antibodies used are listed in Supplementary Table 2 . Actin was used as a loading control.

U937 cells = test: 72-hour resazurin-based cytotoxicity assay, U937; assay type: cell-based, human; settings: U937, CALM-AF10, AML
Protocol: as §1, §2

SEMK2 cells = test: 72-hour resazurin-based cytotoxicity assay, SEMK2; design: species or system human; settings: SEMK2, KMT2A-r t(4;11), pre-B cell childhood ALL
Protocol: as §1, §3

PER-485 cells [2] = test: Synergy study (Bliss Independence model), PER-485; assay type: cell-based, human; settings: PER-485, 72 h
Protocol: as §3

KELLY cells = test: 72-hour resazurin-based cytotoxicity assay, KELLY; assay type: cell-based, human; settings: neuroblastoma
Protocol: as §1, §2

Jurkat cells = test: 72-hour resazurin-based cytotoxicity assay, Jurkat; design: species or system human; settings: KMT2A-wt, childhood T-cell ALL
Protocol: as §1, §3

BE(2)C cells = test: 72-hour resazurin-based cytotoxicity assay, BE(2)C; assay type: cell-based, human; settings: childhood neuroblastoma
Protocol: as §1, §2

PER-485 cells [3] = test: 72-hour resazurin-based cytotoxicity assay, PER-485; assay type: cell-based, human; settings: PER-485, KMT2A-r t(4;11), infant ALL derived
Protocol: as §1, §3

PER-785 cells = test: 72-hour resazurin-based cytotoxicity assay, PER-785; assay type: cell-based, human; settings: PER-785, KMT2A-r t(4;11), infant ALL
Protocol: as §1, §2

[4] = Mouse liver microsomal stability assay; assay type: in vitro ADME; settings: mouse liver microsomes
Description: Compound half-life was estimated by mouse liver microsomal stability assays as described ([10]).

RS4;11 cells = test: 72-hour resazurin-based cytotoxicity assay, RS4;11; design: species or system human; settings: RS4;11, KMT2A-r t(4;11), pre-B cell ALL
Protocol: as §1, §3

[5] = test system: peripheral blood mononuclear cells from healthy donors; test: 72-hour resazurin-based viability assay, PBMC from healthy donors; assay type: cell-based, human; settings: for IC50: PBMC, 72 h resazurin
Protocol: as §1, §3

MRC-5 cells = test: 72-hour resazurin-based cytotoxicity assay, MRC-5; assay type: cell-based, human; settings: MRC-5, non-malignant, normal lung
Protocol: as §1, §3

REH cells = test: 72-hour resazurin-based cytotoxicity assay, REH; design: species or system human; settings: KMT2A-wt, pre-B cell ALL
Protocol: as §1, §3

MV4;11 cells = test: 72-hour resazurin-based cytotoxicity assay, MV4;11; assay type: cell-based, human; settings: MV4;11, KMT2A-r t(4;11), childhood AML
Protocol: as §1, §2

27/87 cells = test: 72-hour resazurin-based cytotoxicity assay, 27/87; assay type: cell-based, human; settings: 27/87, endometrioid ovarian cancer
Protocol: as §1, §2

CEM cells = test: 72-hour resazurin-based cytotoxicity assay, CEM; design: species or system human; settings: KMT2A-wt, childhood T-cell ALL
Protocol: as §1, §3

PER-826 cells = test: 72-hour resazurin-based cytotoxicity assay, PER-826; assay type: cell-based, human; settings: PER-826, KMT2A-r complex t(11;19), infant ALL
Protocol: as §1, §2

THP-1 cells = test: 72-hour resazurin-based cytotoxicity assay, THP-1; assay type: cell-based, human; settings: THP-1, KMT2A-r t(9;11), infant AML
Protocol: as §1, §3

[6] = test system: KMT2A-r cells (PER-485 and THP-1); test: Annexin V positive cells, KMT2A-r cells; assay type: cell-based, human; settings: as early as 6 hours post-exposure; IC50 doses
Protocol: as §3

HEY cells = test: 72-hour resazurin-based cytotoxicity assay, HEY; assay type: cell-based, human; settings: ovarian carcinoma
Protocol: as §1, §2

KP-MO-TS cells = test: 72-hour resazurin-based cytotoxicity assay, KP-MO-TS; assay type: cell-based, human; settings: CALM-AF10, AML
Protocol: as §1, §2

PER-703 cells = test: 72-hour resazurin-based cytotoxicity assay, PER-703; assay type: cell-based, human; settings: PER-703, KMT2A-r t(1;11), infant ALL derived
Protocol: as §1, §2

PER-490 cells = test: 72-hour resazurin-based cytotoxicity assay, PER-490; assay type: cell-based, human; settings: PER-490, KMT2A-r t(4;11), infant ALL
Protocol: as §1, §2

[7] = test system: NR5A1 target genes ENO1 and PKM; KMT2A target genes; test: qRT-PCR of gene expression after treatment; assay type: cell-based, human; settings: three hours
Protocol: Total RNA was isolated using a Qiagen RNeasy kit and cDNA synthesized using the iScript cDNA Synthesis Kit (BioRad). Quantitative PCR was run and analyzed on Applied Biosystem’s QuantStudio5 Real-Time PCR Detection System, using Taqman gene expression assays for genes NR5A1 (Hs00610436_m1), GUSB (Hs99999908_m1) and HPRT (Hs99999909_m1) Relative expressions were determined as previously described ([7]).

H460 cells = test: 72-hour resazurin-based cytotoxicity assay, H460; assay type: cell-based, human; settings: H460, lung carcinoma
Protocol: as §1, §2

MOLM-13 cells = test: 72-hour resazurin-based cytotoxicity assay, MOLM-13; assay type: cell-based, human; settings: MOLM-13, KMT2A-r t(9;11), AML
Protocol: as §1, §3

MCF-7 cells = test: 72-hour resazurin-based cytotoxicity assay, MCF-7; assay type: cell-based, human; settings: MCF-7, breast adenocarcinoma
Protocol: as §1, §2

KMT2A-wt REH cells = test: Synergy study (Bliss Independence model), REH; assay type: cell-based, human; settings: 72 h
Protocol: as §3

WI-38 cells = test: 72-hour resazurin-based cytotoxicity assay, WI-38; assay type: cell-based, human; settings: WI-38, non-malignant, normal lung
Protocol: as §1, §2

KOPN-8 cells = test: 72-hour resazurin-based cytotoxicity assay, KOPN-8; design: species or system human; settings: KOPN-8, KMT2A-r t(11;19), infant pre-B cell ALL
Protocol: as §1, §2

## CCOC(=O)C(C)Oc1cccc2c(=O)n(CC(=O)Nc3ccc4c(c3)OCCO4)ccc12 (centres unmarked) [SID7969543]
LNCaP cells
  IC50: > 20 µM
MOLM13 cells; with cytarabine
  combination effect (Bliss): synergy
MOLM13 cells; with daunorubicin
  combination effect (Bliss): synergy
MOLM13 cells; with etoposide
  combination effect (Bliss): additive
MOLM13 cells; with mitoxantrone
  combination effect (Bliss): additive
MOLM13 cells; with topotecan
  combination effect (Bliss): additive
[1]
  cleavage of PARP and caspase-3: increased cleavage
U937 cells
  IC50: 1.9 µM
SEMK2 cells
  IC50: > 20 µM
PER-485 cells [2]; with cytarabine
  combination effect (Bliss): synergy
PER-485 cells [2]; with daunorubicin
  combination effect (Bliss): synergy
PER-485 cells [2]; with etoposide
  combination effect (Bliss): synergy
PER-485 cells [2]; with mitoxantrone
  combination effect (Bliss): additive
PER-485 cells [2]; with topotecan
  combination effect (Bliss): additive
KELLY cells
  IC50: > 20 µM
Jurkat cells
  IC50: > 20 µM
BE(2)C cells
  IC50: > 20 µM
PER-485 cells [3]
  IC50: 1.4 µM
PER-785 cells
  IC50: 5 µM
[4]
  half-life in microsomal stability assays: short half-life
RS4;11 cells
  IC50: > 20 µM
[5]; Donor 1
  IC50: > 20 µM
[5]; Donor 2
  IC50: > 20 µM
[5]; Donor 3
  IC50: > 20 µM
[5]; healthy donors, doses that inhibit KMT2A-r leukemia cells
  viability of peripheral blood mononuclear cells (PBMC): did not significantly impact the viability
MRC-5 cells
  IC50: > 20 µM
REH cells
  IC50: > 20 µM
MV4;11 cells
  IC50: 2.5 µM
27/87 cells
  IC50: > 20 µM
CEM cells
  IC50: > 20 µM
PER-826 cells
  IC50: > 20 µM
THP-1 cells
  IC50: 2.6 µM
[6]
  percentage of annexin V-positive KMT2A-r cells: significantly increased
HEY cells
  IC50: > 20 µM
KP-MO-TS cells
  IC50: 1.9 µM
PER-703 cells
  IC50: 4.9 µM
PER-490 cells
  IC50: 1.9 µM
[7]; KMT2A-r cell lines
  expression of genes not regulated by NR5A1 (HOXA9, HOXA10, MEIS1, MYB): remained unchanged
[7]; sensitive KMT2A-r cell lines, before induction of apoptosis
  expression of NR5A1 target genes ENO1 and PKM: significantly decreased
H460 cells
  IC50: > 20 µM
MOLM-13 cells
  IC50: 1 µM
MCF-7 cells
  IC50: > 20 µM
KMT2A-wt REH cells; with cytarabine
  combination effect (Bliss): No synergy
KMT2A-wt REH cells; with daunorubicin
  combination effect (Bliss): No synergy
KMT2A-wt REH cells; with etoposide
  combination effect (Bliss): No synergy
WI-38 cells
  IC50: > 20 µM
KOPN-8 cells
  IC50: > 20 µM
